# Results as given in patent US8452543B2, “High throughput screening for antimicrobial dosing regimens” (priority 2005, dated 2013).
# Like-named read-outs stand apart in the source and are kept apart here.
# How the values were obtained:
# [1] = test system: P. aeruginosa PA 27853 and resistant isolates MR1, MR2, MR3; assay: microbe, parasite or virus in culture; assay type: cell-based; details: Pseudomonas aeruginosa, Etest
# [2] = test system: levofloxacin resistant P. aeruginosa isolates; assay: Susceptibility of levofloxacin resistant isolates, screening panel; assay type: cell-based, Pseudomonas aeruginosa
# [3] = test system: A. baumannii ATCC BAA 747; assay: MIC/MBC, modified macrobroth dilution; assay type: cell-based; details: Acinetobacter baumannii, BAA747; A. baumannii isolate (AB BAA 747)
# Experimental: (§1) The final concentration of bacteria in each macrobroth dilution tube was approximately 5×10^5 cfu/ml of Ca-MHB. Serial twofold dilutions of meropenem were used. […] Samples (50 μl) from clear tubes and the cloudy tube with the highest drug concentration were plated on Mueller-Hinton agar (MHA) plates (Hardy Diagnostics, Santa Maria, Calif.). […] Drug carry-over effect was assessed by visual inspection of the distribution of colonies on media plates. The studies were conducted in duplicate and repeated at least once on a separate day.
# [4] = test system: A. baumannii ATCC BAA 747; assay: Time-kill studies and best-fit model, amikacin; assay type: cell-based, Acinetobacter baumannii
# [5] = test system: amikacin resistant A. baumannii isolates; assay: Resistance confirmation, repeat susceptibility testing, amikacin; assay type: cell-based, Acinetobacter baumannii; details: for cross-resistance: amikacin resistant isolates
# Experimental: The media plates were incubated at 35° C. for up to 24 (total population) and 72 hours (sub-populations with reduced susceptibility), then bacterial density from each sample was enumerated visually. The theoretical lower limit of detection was 400 CFU/ml.
# [6] = test system: P. aeruginosa PA 27853 and resistant isolates MR1, MR2, MR3; assay: microbe, parasite or virus in culture; assay type: cell-based, Pseudomonas aeruginosa; details: Pseudomonas aeruginosa
# Experimental: as §1, with “Minimum inhibitory concentration (MIC)/minimum bactericidal concentration (MBC) were determined in Ca-MHB using a modified macrobroth dilution method as described by the CLSI (10). The final” for “The final”
# P. aeruginosa ATCC 27853 [7] = assay: MIC/MBC, modified macrobroth dilution; assay type: cell-based, Pseudomonas aeruginosa; details: P. aeruginosa ATCC 27853
# Experimental: as §1
# P. aeruginosa ATCC 27853 [8] = assay: Time-kill studies and model fit, levofloxacin; assay type: cell-based, Pseudomonas aeruginosa; details: for EC50: Pseudomonas aeruginosa
# Experimental: An overnight culture of the isolate was diluted 30-fold with pre-warmed Ca-MHB and incubated further at 35 C until reaching late log phase growth. The bacterial suspension was diluted with Ca-MHB accordingly based on absorbance at 630 nm; 15 mL of the suspension was transferred to 50 mL sterile conical flasks each containing 1 mL of a drug solution at 16·the target concentration. The final concentration of the bacterial suspension in each flask at baseline was approximately 1×10^8 CFU/mL.
# The high inoculum was used to simulate the bacterial load in a severe infection, e.g., nosocomial pneumonia. Furthermore, the high inoculum used would allow resistant sub-population(s) to be likely present at baseline. The experiment was conducted for 24 h in a shaker water bath set at 35° C. Serial samples (baseline, 0.5, 1, 2, 4, 8, 12, and 24 h) were obtained from each flask over 24 h to characterize the effect of various drug exposures on the total bacterial population.
# Prior to culturing the bacteria quantitatively, the bacterial samples (0.5 mL) were centrifuged at 10,000 g for 15 min, and reconstituted with sterile normal saline to their original volumes in order to minimize drug carry-over effect. Total bacterial populations were quantified by spiral plating 10 serial dilutions of the samples (50 IL) onto Ca-MHA plates. The media plates were incubated in a humidified incubator (35° C. for 18-24 h, and the bacterial density from each sample was determined by CASBA-4 colony scanner/software (Spiral Biotech, Bethesda, Md.). The reliable limit of detection was 400 CFU/mL. The experiment was repeated once on a separate day.
# The mathematical framework described Example 1 is used to predict whether a microbial population will be eradicated or survive under an antimicrobial pressure whose concentration over time follows a clinically realistic (time-periodic) profile. For absence of agent (placebo, C=0 Ig/mL) and by inspection in FIG. 13 it is determined that Nmax=10^9.4 CFU/mL. Using this value for Nmax standard nonlinear least squares (differential evolution of mathematica) is used to get a growth rate constant value Kg=0.22 h^−1.
# It is assumed that Kg is the same for all bacterial sub-populations, owing to common basic physiology. For the highest agent concentration used (C=64 Ig/mL) there appears to be complete eradication of the entire microbial population after the third sample in time. Therefore, no experimental points beyond that are considered in the data fit. Further, it is assumed that the maximum kill rate, Kk, occurring at an antibiotic concentration high enough to saturate all bacterial target sites, is the same for all bacteria, namely Kk=Kb. […] The values of the remaining parameters are estimated using standard nonlinear least squares for concentrations C=0.5, . . . , 32 Ig/mL (Table 4).
# [9] = strain MR1 (Placebo exposure, OprD−)
# [10] = strain MR2 (Cmin/MIC 0.5, OprD− & Mex+)
# [11] = strain MR3 (Cmin/MIC 1.7, OprD− & Mex+), read-out: MIC
compound,measurement,setting,value
"CCN1CCN(C(=O)N[C@@H](C(=O)N[C@@H]2C(=O)N3[C@@H]2SC(C)(C)[C@@H]3C(=O)O)c2ccccc2)C(=O)C1=O [PIP, piperacillin]",MIC,[1]; [9],3 mg/L
same,MIC,[1]; [10],8 mg/L
same,MIC,[1]; [11],32 mg/L
same,MIC,[1]; strain PA 27853,3 mg/L
O=C(O)c1cn(C2CC2)c2cc(N3CCNCC3)c(F)cc2c1=O [ciprofloxacin],"cross resistance, change in MIC",[2]; levofloxacin resistant isolates,≥ 4 fold
NCC[C@H](O)C(=O)N[C@@H]1C[C@H](N)[C@@H](O[C@H]2O[C@H](CN)[C@@H](O)[C@H](O)[C@H]2O)[C@H](O)[C@H]1O[C@H]1O[C@H](CO)[C@@H](O)[C@H](N)[C@H]1O [amikacin],MBC,[3],8 mg/L
same,MIC,[3],4 mg/L
same,H,[4]; AB BAA 747,3.06
same,Kk,[4]; AB BAA 747,27.81 h⁻¹
same,β,[4]; AB BAA 747,50.09
same,τ,[4]; AB BAA 747,442 µL/min/mg
same,EC50,"[4]; Acinetobacter baumannii, BAA747, AB BAA 747, read-out: C50k",1.56 mg/L
same,concentrations with complete bacterial eradication,[4]; after 2 hours of drug exposure,> 16 mg/L
same,stability of resistance,[5]; resistant isolates from sub-optimal dosing regimens,phenotypically stable
"NC[C@H]1O[C@H](O[C@H]2[C@H](O)[C@@H](O[C@H]3O[C@H](CO)[C@@H](O)[C@H](N)[C@H]3O)[C@H](N)C[C@@H]2N)[C@H](N)C[C@@H]1O [TOB, tobramycin]",cross-resistance,[5],observed
same,MIC,[1]; [9],0.5 mg/L
same,MIC,[1]; [10],0.5 mg/L
same,MIC,[1]; [11],0.5 mg/L
same,MIC,[1]; strain PA 27853,0.5 mg/L
"C[C@@H](O)[C@H]1C(=O)N2C(C(=O)O)=C(SCCN=CN)C[C@H]12 [IPM, imipenem]",MIC,[1]; [9],> 32 mg/L
same,MIC,[1]; [10],> 32 mg/L
same,MIC,[1]; [11],32 mg/L
same,MIC,[1]; strain PA 27853,3 mg/L
"CC1(C)S[C@@H]2[C@H](NC(=O)C(C(=O)O)c3ccccc3)C(=O)N2[C@H]1C(=O)O (stereo partly shown) [CAR, carbenicillin]",MIC,"[6]; strain MR2 (Cmin/MIC 0.5, OprD− & Mex+), macrobroth method",512 mg/L
same,MIC,"[6]; strain MR3 (Cmin/MIC 1.7, OprD− & Mex+), macrobroth method, read-out: MIC",512 mg/L
same,MIC,"[6]; strain PA 27853, macrobroth method",64 mg/L
"CC(C)(O/N=C(\C(=O)N[C@@H]1C(=O)N2C(C(=O)[O-])=C(C[n+]3ccccc3)CS[C@H]12)c1csc(N)n1)C(=O)O [CAZ, ceftazidime]",MIC,[1]; [9],1 mg/L
same,MIC,[1]; [10],2 mg/L
same,MIC,[1]; [11],4 mg/L
same,MIC,[1]; strain PA 27853,1 mg/L
C[C@H]1COc2c(N3CCN(C)CC3)c(F)cc3c(=O)c(C(=O)O)cn1c23 [levofloxacin],MIC,P. aeruginosa ATCC 27853 [7],2 Ig/mL
same,MIC,[6],6 mg/L
same,EC50,"P. aeruginosa ATCC 27853 [8]; ATCC27853, read-out: C50",0.86 mg/L
same,EC50,"P. aeruginosa ATCC 27853 [8]; ATCC27853, read-out: C50b",39.4 mg/L
same,C50A,P. aeruginosa ATCC 27853 [8]; model fit,0.45 µg/mL
same,H,P. aeruginosa ATCC 27853 [8]; model fit,1.7
same,HA,P. aeruginosa ATCC 27853 [8]; model fit,10
same,Hb,P. aeruginosa ATCC 27853 [8]; model fit,24
same,increase in MIC compared to the parent strain,[2]; two random isolates from drug supplemented media plates,16 fold
same,MIC,[1]; [9],0.75 mg/L
same,MIC,[1]; [10],4 mg/L
same,MIC,[1]; strain PA 27853,0.75 mg/L
CO/N=C(\C(=O)N[C@@H]1C(=O)N2C(C(=O)[O-])=C(C[N+]3(C)CCCC3)CS[C@H]12)c1csc(N)n1 [cefepime],cross-resistance,[5],not
